Assay results: patent US20250147039A1, “Compounds for complexation of rare earth elements and/or s-, p-, d- block metals, their coordination compounds, peptide conjugates, method of their preparation and use thereof” (USTAV ORGANICKE CHEMIE A BIOCHEMIE AV CR V.V.I., priority 2021, published 2025)

What was measured:
Type in all cases: physicochemical
[1] = Relaxivities of Gd^III chelates, inversion recovery pulse sequence on relaxometer (0.5 T) (Chart 15); details: 40.0° C., 1.0 mM in aq. MOPS/NaOH buffer, pH 7.0
[2] = Dissociation of chelates in aq. 0.1M HCl at RT (acid decomplexation kinetic inertness) (Chart 20)
[3] = Dissociation of chelates in aq. 6.0M HCl at 80° C. (acid decomplexation kinetic inertness) (Chart 17)
[4] = Dissociation of chelates in aq. 1.0M HCl at 80° C. (acid decomplexation kinetic inertness) (Chart 18)
[5] = Dissociation of chelates in aq. 0.1M HCl at 80° C. (acid decomplexation kinetic inertness) (Chart 19)
[6] = Formation of 1,5-cz-[Ln(Lig)] from 1,5-cz-Lig (metal dependent direct complexation), RT and 80° C. (Chart 9); details: pH 7.0; for conversion to 1,5-cz-[Ln(Lig)] from 1,5-cz-Lig, Bi^III: ~4% DMSO
[7] = Formation of 1,5-cz-[Ln(Lig)] from 1,5-cz-Lig (metal dependent direct complexation) (Chart 8); details: pH 7.0
[8] = Formation of 1,5-cz-[Ln(Lig)] from Lig and Ln^III ions (metal dependent click-zip), MES/NaOH buffer pH 5.2, analytical HPLC (Chart 3)

SMILES: C#Cc1cccc(CN2CC[N@]3CCN(Cc4cc(-c5ccccc5)cc(CN=[N+]=[N-])n4)CC[N@@](CC2)CC(=O)[O][Gd][O]C(=O)C3)n1 [TD451]
- relaxivity [1]: 2.39 mM⁻¹ s⁻¹

SMILES: O=C1C[N@@]2CC[N@]3CC[N@@](CC[N@](CC2)Cc2cccc(n2)-c2cnnn2Cc2cc(-c4ccccc4)cc(n2)C3)CC(=O)[O][Gd][O]1 [TD527]
- fraction of intact chelate ([2]; 1 month): 100%
- fraction of intact chelate ([2]; 1 week): 100%
- fraction of intact chelate ([2]; 1 hour): 100%
- fraction of intact chelate ([2]; 1 day): 100%
- fraction of intact chelate ([3]; 1 month): 0%
- fraction of intact chelate ([3]; 1 week): 0%
- fraction of intact chelate ([3]; 1 hour): 2%
- fraction of intact chelate ([3]; 1 day): 0%
- fraction of intact chelate ([4]; 1 month): 0%
- fraction of intact chelate ([4]; 1 week): 1%
- fraction of intact chelate ([4]; 1 hour): 98%
- fraction of intact chelate ([4]; 1 day): 58%
- relaxivity [1]: 1.48 mM⁻¹ s⁻¹
- fraction of intact chelate ([5]; 1 month): 82%
- fraction of intact chelate ([5]; 1 week): 95%
- fraction of intact chelate ([5]; 1 hour): 100%
- fraction of intact chelate ([5]; 1 day): 99%

SMILES: O=C(O)CN1CC[N@]2CCN(CC(=O)O)CC[N@@](CC1)Cc1cccc(n1)-c1cnnn1Cc1cc(-c3ccccc3)cc(n1)C2 [TD650]
- conversion to 1,5-cz-[Ln(Lig)] from 1,5-cz-Lig, Cu^II ([6]; A: 1 min at RT): 43%
- conversion to 1,5-cz-[Ln(Lig)] from 1,5-cz-Lig, Pb^II ([6]; A: 1 min at RT): 98%
- conversion to 1,5-cz-[Ln(Lig)] from 1,5-cz-Lig, Ca^II ([6]; B: 1 hour at RT): 0%
- conversion to 1,5-cz-[Ln(Lig)] from 1,5-cz-Lig, Cd^II ([6]; B: 1 hour at RT): 58%
- conversion to 1,5-cz-[Ln(Lig)] from 1,5-cz-Lig, Cu^II ([6]; B: 1 hour at RT): 47%
- conversion to 1,5-cz-[Ln(Lig)] from 1,5-cz-Lig, Ni^II ([6]; B: 1 hour at RT): 0%
- conversion to 1,5-cz-[Ln(Lig)] from 1,5-cz-Lig, Pb^II ([6]; B: 1 hour at RT): 99%
- conversion to 1,5-cz-[Ln(Lig)] from 1,5-cz-Lig, Zn^II ([6]; B: 1 hour at RT): 59%
- conversion to 1,5-cz-[Ln(Lig)] from 1,5-cz-Lig, Bi^III ([6]; B: 1 hour at RT): 2%
- conversion to 1,5-cz-[Ln(Lig)] from 1,5-cz-Lig, Ca^II ([6]; C: 1 hour at 80° C.): 23%
- conversion to 1,5-cz-[Ln(Lig)] from 1,5-cz-Lig, Cd^II ([6]; C: 1 hour at 80° C.): 98%
- conversion to 1,5-cz-[Ln(Lig)] from 1,5-cz-Lig, Cu^II ([6]; C: 1 hour at 80° C.): 49%
- conversion to 1,5-cz-[Ln(Lig)] from 1,5-cz-Lig, Ni^II ([6]; C: 1 hour at 80° C.): 9%
- conversion to 1,5-cz-[Ln(Lig)] from 1,5-cz-Lig, Pb^II ([6]; C: 1 hour at 80° C.): 98%
- conversion to 1,5-cz-[Ln(Lig)] from 1,5-cz-Lig, Zn^II ([6]; C: 1 hour at 80° C.): 91%
- conversion to 1,5-cz-[Ln(Lig)] from 1,5-cz-Lig, Bi^III ([6]; C: 1 hour at 80° C.): 96%
- conversion to 1,5-cz-[Ln(Lig)] from 1,5-cz-Lig, Ba^II ([6]; D: 1 week at 80° C.): 0%
- conversion to 1,5-cz-[Ln(Lig)] from 1,5-cz-Lig, Ca^II ([6]; D: 1 week at 80° C.): 96%
- conversion to 1,5-cz-[Ln(Lig)] from 1,5-cz-Lig, Cd^II ([6]; D: 1 week at 80° C.): 99%
- conversion to 1,5-cz-[Ln(Lig)] from 1,5-cz-Lig, Cu^II ([6]; D: 1 week at 80° C.): 78%
- conversion to 1,5-cz-[Ln(Lig)] from 1,5-cz-Lig, Ga^II ([6]; D: 1 week at 80° C.): 0%
- conversion to 1,5-cz-[Ln(Lig)] from 1,5-cz-Lig, In^III ([6]; D: 1 week at 80° C.): 0%
- conversion to 1,5-cz-[Ln(Lig)] from 1,5-cz-Lig, Ni^II ([6]; D: 1 week at 80° C.): 11%
- conversion to 1,5-cz-[Ln(Lig)] from 1,5-cz-Lig, Pb^II ([6]; D: 1 week at 80° C.): 98%
- conversion to 1,5-cz-[Ln(Lig)] from 1,5-cz-Lig, Sc^III ([6]; D: 1 week at 80° C.): 0%
- conversion to 1,5-cz-[Ln(Lig)] from 1,5-cz-Lig, Sr^II ([6]; D: 1 week at 80° C.): 0%
- conversion to 1,5-cz-[Ln(Lig)] from 1,5-cz-Lig, Y^III ([6]; D: 1 week at 80° C.): 0%
- conversion to 1,5-cz-[Ln(Lig)] from 1,5-cz-Lig, Zn^II ([6]; D: 1 week at 80° C.): 99%
- conversion to 1,5-cz-[Ln(Lig)] from 1,5-cz-Lig, Bi^III ([6]; D: 1 week at 80° C.): 90%
- conversion to 1,5-cz-[Ln(Lig)] from 1,5-cz-Lig, Ce^III ([7]; A: 1 hour at 80° C.): 0%
- conversion to 1,5-cz-[Ln(Lig)] from 1,5-cz-Lig, Dy^III ([7]; A: 1 hour at 80° C.): 0%
- conversion to 1,5-cz-[Ln(Lig)] from 1,5-cz-Lig, Er^III ([7]; A: 1 hour at 80° C.): 0%
- conversion to 1,5-cz-[Ln(Lig)] from 1,5-cz-Lig, Eu^III ([7]; A: 1 hour at 80° C.): 0%
- conversion to 1,5-cz-[Ln(Lig)] from 1,5-cz-Lig, Gd^III ([7]; A: 1 hour at 80° C.): 0%
- conversion to 1,5-cz-[Ln(Lig)] from 1,5-cz-Lig, Ho^III ([7]; A: 1 hour at 80° C.): 0%
- conversion to 1,5-cz-[Ln(Lig)] from 1,5-cz-Lig, La^III ([7]; A: 1 hour at 80° C.): 0%
- conversion to 1,5-cz-[Ln(Lig)] from 1,5-cz-Lig, Lu^III ([7]; A: 1 hour at 80° C.): 0%
- conversion to 1,5-cz-[Ln(Lig)] from 1,5-cz-Lig, Nd^III ([7]; A: 1 hour at 80° C.): 0%
- conversion to 1,5-cz-[Ln(Lig)] from 1,5-cz-Lig, Pr^III ([7]; A: 1 hour at 80° C.): 0%
- conversion to 1,5-cz-[Ln(Lig)] from 1,5-cz-Lig, Sm^III ([7]; A: 1 hour at 80° C.): 0%
- conversion to 1,5-cz-[Ln(Lig)] from 1,5-cz-Lig, Tb^III ([7]; A: 1 hour at 80° C.): 0%
- conversion to 1,5-cz-[Ln(Lig)] from 1,5-cz-Lig, Tm^III ([7]; A: 1 hour at 80° C.): 0%
- conversion to 1,5-cz-[Ln(Lig)] from 1,5-cz-Lig, Yb^III ([7]; A: 1 hour at 80° C.): 0%
- conversion to 1,5-cz-[Ln(Lig)] from 1,5-cz-Lig, Ce^III ([7]; B: 1 week at 80° C.): 0%
- conversion to 1,5-cz-[Ln(Lig)] from 1,5-cz-Lig, Dy^III ([7]; B: 1 week at 80° C.): 0%
- conversion to 1,5-cz-[Ln(Lig)] from 1,5-cz-Lig, Er^III ([7]; B: 1 week at 80° C.): 0%
- conversion to 1,5-cz-[Ln(Lig)] from 1,5-cz-Lig, Eu^III ([7]; B: 1 week at 80° C.): 0%
- conversion to 1,5-cz-[Ln(Lig)] from 1,5-cz-Lig, Gd^III ([7]; B: 1 week at 80° C.): 0%
- conversion to 1,5-cz-[Ln(Lig)] from 1,5-cz-Lig, Ho^III ([7]; B: 1 week at 80° C.): 0%
- conversion to 1,5-cz-[Ln(Lig)] from 1,5-cz-Lig, La^III ([7]; B: 1 week at 80° C.): 0%
- conversion to 1,5-cz-[Ln(Lig)] from 1,5-cz-Lig, Lu^III ([7]; B: 1 week at 80° C.): 0%
- conversion to 1,5-cz-[Ln(Lig)] from 1,5-cz-Lig, Nd^III ([7]; B: 1 week at 80° C.): 0%
- conversion to 1,5-cz-[Ln(Lig)] from 1,5-cz-Lig, Pr^III ([7]; B: 1 week at 80° C.): 0%
- conversion to 1,5-cz-[Ln(Lig)] from 1,5-cz-Lig, Sm^III ([7]; B: 1 week at 80° C.): 0%
- conversion to 1,5-cz-[Ln(Lig)] from 1,5-cz-Lig, Tb^III ([7]; B: 1 week at 80° C.): 0%
- conversion to 1,5-cz-[Ln(Lig)] from 1,5-cz-Lig, Tm^III ([7]; B: 1 week at 80° C.): 0%
- conversion to 1,5-cz-[Ln(Lig)] from 1,5-cz-Lig, Yb^III ([7]; B: 1 week at 80° C.): 0%
- conversion to 1,5-cz-[Ln(Lig)] from 1,5-cz-Lig, Gd^III ([7]; C: ~6 months at 80° C.): 0%
- conversion to 1,5-cz-[Ln(Lig)] from 1,5-cz-Lig, Lu^III ([7]; C: ~6 months at 80° C.): 0%

SMILES: [N-]=[N+]=NCc1cc(-c2ccc(C(=O)O)cc2)cc(CN2CCN(CC(=O)O)CCN(Cc3cccc(C#CCN)n3)CCN(CC(=O)O)CC2)n1 [TD750]
- conversion to 1,5-cz-[Ln(Lig)], Gd^III ([8]; after 1 hour at 80° C. (A)): 3%
- conversion to 1,5-cz-[Ln(Lig)], Gd^III ([8]; after 18 hours at 80° C. (B)): 9%
- conversion to 1,5-cz-[Ln(Lig)], Lu^III ([8]; after 1 hour at 80° C. (A)): 19%
- conversion to 1,5-cz-[Ln(Lig)], Lu^III ([8]; after 18 hours at 80° C. (B)): 71%
